According to patent US4490388A, “Amidine compound and anticomplement agent comprising same” (Torii & Co., Ltd., priority 1981, dated 1984):
“And” between values parts separate entries of the source, which are not always exact repeats. Identical values can stand only once. Like-named read-outs stand apart in the source and are kept apart here.

Legend:
Plasmin = Plasmin (Homo sapiens, UniProt P00747); test: Anti-plasmin activity (hydrolysis of TAME); assay type: biochemical; settings: molar concentration inhibiting 50% of TAME hydrolysis; read-out: id50, Plasmin
Method: (§1) The anti-trypsin, anti-plasmin, anti-kallikrein and anti-thrombin activities were determined according to the method of Muramatsu et al. [M. Muramatsu, T. Onishi, S. Makino, Y. Hayashi and S. Fujii, J. of Biochem., 58, 214 (1965)]. The data summarized in Table 1 are expressed in terms of molar concentration (id50) of the test compound which inhibits 50% of the activity of each enzyme to hydrolyze TAME (tosylarginine methyl ester). The compound No. corresponds to the compound number shown in Examples.

Trypsin = molecular target: T1, Trypsin (Bos taurus, UniProt P00760); test: Anti-trypsin activity (hydrolysis of TAME); assay type: biochemical; settings: for IC50: molar concentration inhibiting 50% of TAME hydrolysis, read-out: id50, Trypsin
T1 sequence (P00760 24-246): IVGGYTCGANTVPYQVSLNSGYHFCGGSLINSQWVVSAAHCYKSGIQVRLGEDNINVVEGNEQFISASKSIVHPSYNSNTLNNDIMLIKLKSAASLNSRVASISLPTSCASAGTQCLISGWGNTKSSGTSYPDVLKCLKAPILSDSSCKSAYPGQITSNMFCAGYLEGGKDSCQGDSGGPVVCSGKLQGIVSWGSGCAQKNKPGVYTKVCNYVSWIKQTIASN
Method: as §1

complement = test: Inhibition of complement mediated hemolysis; assay type: cell-based; settings: read-out: Inhibition of complement mediated hemolysis (%)
Method: The complement mediated hemolysis is widely used as a means to determine the titration of complement. The principle of this method is based on the fact that hemolysis is caused by the activation of complement, when the latter is added to a complex (immune complex) of erythrocytes and the autibody thereof. The degree of hemolysis varies in proportion to the amount of complement added. Therefore, when a known amount of complement admixed with a C1 esterase inhibitor is used, the hemolysis must be suppressed in proportion to the inhibitory activity.
The anti-C1 esterase (C1r, C1s) activity was determined according to the method of Okamura et al. [K. Okamura, M. Muramatsu and B. Fujii, Biochem. Biophys. […] The inhibition of complement mediated hemolysis was determined according to the method of Baker et al. [B. R. Baker and E. H. Erickson, J. Med. Chem., 12, 408-414 (1969)].

C1s = molecular target: T2, C1s (Homo sapiens, UniProt P09871); test: Anti-C1 esterase activity, C1s (hydrolysis of ATEE); assay type: biochemical
T2 sequence (P09871 438-688 limits assumed): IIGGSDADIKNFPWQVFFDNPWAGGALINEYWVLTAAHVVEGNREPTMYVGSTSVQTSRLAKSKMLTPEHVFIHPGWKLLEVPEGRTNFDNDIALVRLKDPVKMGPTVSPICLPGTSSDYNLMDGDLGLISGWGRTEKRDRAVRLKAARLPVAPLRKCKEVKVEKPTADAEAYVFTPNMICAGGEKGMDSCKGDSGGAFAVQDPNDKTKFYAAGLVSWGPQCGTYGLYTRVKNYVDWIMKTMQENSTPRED
T2 sequence (P09871 16-437 partner limits assumed): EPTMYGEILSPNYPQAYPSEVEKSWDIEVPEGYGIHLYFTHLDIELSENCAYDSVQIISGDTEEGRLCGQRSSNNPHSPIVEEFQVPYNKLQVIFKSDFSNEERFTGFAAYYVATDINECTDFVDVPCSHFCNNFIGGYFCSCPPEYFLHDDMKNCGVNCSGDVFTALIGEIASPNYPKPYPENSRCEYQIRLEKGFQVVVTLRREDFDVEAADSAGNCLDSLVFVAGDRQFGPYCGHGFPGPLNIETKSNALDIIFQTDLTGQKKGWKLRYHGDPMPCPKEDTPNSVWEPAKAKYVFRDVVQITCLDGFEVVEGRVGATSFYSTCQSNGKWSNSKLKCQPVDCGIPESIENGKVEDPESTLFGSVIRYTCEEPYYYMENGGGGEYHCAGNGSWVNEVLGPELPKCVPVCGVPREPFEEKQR
Method: The anti-C1 esterase (C1r, C1s) activity was determined according to the method of Okamura et al. [K. Okamura, M. Muramatsu and B. Fujii, Biochem. Biophys. Acta, 295, 252-257 (1973)]. The inhibition of complement mediated hemolysis was determined according to the method of Baker et al. [B. R. Baker and E. H. Erickson, J. Med. Chem., 12, 408-414 (1969)]. The figures in Table 2 have the following meanings:
C1s: Molar concentration of the test compound which inhibits 50% of the ability of C1s to hydrolyse ATEE (acetyltyrosin ethyl ester).

C1r = molecular target: T3, C1r (Homo sapiens, UniProt P00736); test: Anti-C1 esterase activity, C1r (hydrolysis of AAME); assay type: biochemical; settings: for IC50: molar concentration inhibiting 50% of AAME hydrolysis, read-out: Anti-C1 activity, C1r id50; for inhibition at 10 µM: at 1×10^-5 M, read-out: Anti-C1 activity, C1r percent inhibition
T3 sequence (P00736 464-705 limits assumed): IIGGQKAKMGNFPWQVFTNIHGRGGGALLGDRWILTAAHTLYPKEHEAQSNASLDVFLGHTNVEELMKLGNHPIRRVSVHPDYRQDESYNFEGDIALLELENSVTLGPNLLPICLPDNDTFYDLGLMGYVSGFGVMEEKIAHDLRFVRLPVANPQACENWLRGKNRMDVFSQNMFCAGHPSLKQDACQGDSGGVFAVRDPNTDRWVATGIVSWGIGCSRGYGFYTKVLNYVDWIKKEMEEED
T3 sequence (P00736 18-463 partner limits assumed): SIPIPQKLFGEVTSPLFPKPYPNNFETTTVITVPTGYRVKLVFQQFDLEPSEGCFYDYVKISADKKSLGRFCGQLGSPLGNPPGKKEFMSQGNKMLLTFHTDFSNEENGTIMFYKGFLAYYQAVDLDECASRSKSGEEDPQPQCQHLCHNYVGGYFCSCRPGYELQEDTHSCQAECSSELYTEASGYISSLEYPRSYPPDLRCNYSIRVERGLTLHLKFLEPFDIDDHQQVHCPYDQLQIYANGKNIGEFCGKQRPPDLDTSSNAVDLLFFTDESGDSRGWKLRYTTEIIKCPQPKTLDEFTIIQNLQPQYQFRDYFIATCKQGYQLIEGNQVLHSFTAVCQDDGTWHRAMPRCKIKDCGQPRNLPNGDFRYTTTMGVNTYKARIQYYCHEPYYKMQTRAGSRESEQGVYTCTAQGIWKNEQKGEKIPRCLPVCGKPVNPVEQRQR
Method: The anti-C1 esterase (C1r, C1s) activity was determined according to the method of Okamura et al. [K. Okamura, M. Muramatsu and B. Fujii, Biochem. Biophys. […] The figures in Table 2 have the following meanings:
C1r: Molar concentration of the test compound which inhibits 50% of the ability of C1r to hydrolyse AAME (acetylarginin methyl ester) (id50).

Thrombin = Thrombin (Bos taurus, UniProt P00735); test: Anti-thrombin activity (hydrolysis of TAME); assay type: biochemical
Method: as §1

[1] = Toxicity, median lethal dose (LD50); settings: in vivo
Forssman shock = Forssman shock (survival time after hemolysin); assay type: in vivo, guinea pig (male Hartlay); settings: for time elapsed until death, average: control average 361 sec.
Text: Quite different from other animals, guinea pig has on the surface of its organs a specific antigen called Forssman antigen which specifically reacts with the antibody of sheep erythrocyte. Forssman shock is based on the above principle and is a shock caused by the administration of antibody of sheep erythrocyte to a guinea pig. The Forssman shock was investigated in detail by many researches and it was definitely shown that this shock is a model case where the complement plays the principal part and that the shock is associated with a classical pathway in which the complement system is activated progressively starting from C1. Since the participation of complement in autoimmune diseases has been established, the Forssman shock can be said to be a useful means for testing a drug for autoimmune diseases. A drug effective for the treatment of Forssman shock is useful as a drug of autoimmune diseases. [Anti-trypsin, anti-plasmin, anti-kallikrein and anti-thrombin activities]
The experiment was performed according to the method of I. G. Offerness et al. [Biochem. Pharmacol., 27 (14), 1873-1878 (1978)]. Male Hartlay guinea pig of about 300 g in body weight was used. Each guinea pig of the control group was administered intravenously with 0.5 ml (minimum dose to cause the shock) of hemolysin (commercial hemolysin, 5,000 U as assayed by the method of Ogata) and the time elapsed until death was observed. For the test group, each guinea pig was administered intravenously with the test compound 5 minutes before the administration of hemolysin and the time (second) elapsed until death was observed.

Plasmin, sequence (P00747 581-810 limits assumed): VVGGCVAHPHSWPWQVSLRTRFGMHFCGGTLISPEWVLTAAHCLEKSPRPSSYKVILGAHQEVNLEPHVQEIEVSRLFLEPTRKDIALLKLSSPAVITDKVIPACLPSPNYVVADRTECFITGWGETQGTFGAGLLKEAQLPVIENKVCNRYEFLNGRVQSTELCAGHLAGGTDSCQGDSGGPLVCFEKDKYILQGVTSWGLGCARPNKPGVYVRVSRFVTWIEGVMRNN
Plasmin, sequence (P00747 97-580 partner limits assumed): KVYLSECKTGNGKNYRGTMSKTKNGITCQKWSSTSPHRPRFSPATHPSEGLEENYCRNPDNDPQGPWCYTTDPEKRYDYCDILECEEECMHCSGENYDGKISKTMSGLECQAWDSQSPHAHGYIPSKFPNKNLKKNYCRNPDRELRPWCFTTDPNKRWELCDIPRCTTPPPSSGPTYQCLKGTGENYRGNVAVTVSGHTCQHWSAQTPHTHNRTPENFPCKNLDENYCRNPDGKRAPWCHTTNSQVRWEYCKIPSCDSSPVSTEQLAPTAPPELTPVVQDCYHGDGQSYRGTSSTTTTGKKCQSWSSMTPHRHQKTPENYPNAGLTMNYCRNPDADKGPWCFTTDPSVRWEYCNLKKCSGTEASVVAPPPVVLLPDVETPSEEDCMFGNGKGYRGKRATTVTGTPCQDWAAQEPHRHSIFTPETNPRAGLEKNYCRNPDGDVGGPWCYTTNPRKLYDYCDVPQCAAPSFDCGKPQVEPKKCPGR

Row | Compound | IC50 (Plasmin) [µM] | IC50 (Trypsin) [µM] | inhibition at 100 µM (complement; 1 × 10^-4 M) [%] | inhibition at 10 µM (complement; 1 × 10^-5 M) [%] | inhibition at 1 µM (complement; 1 × 10^-6 M) [%] | inhibition at 0.1 µM (complement; 1 × 10^-7 M) [%] | IC50 (C1r) [µM] | IC50 (Thrombin) [µM] | inhibition at 10 µM (C1r) [%] | further results
1 | N=C(N)C=Cc1ccc(OC(=O)c2ccccc2)cc1 [Compound 12, 4-(β-amidinoethenyl)-phenyl benzoate] | 2 | 0.6 | 100 | 100 | 54 | 11 | 0.8 | 3 | – | IC50 (C1s): 0.3 µM
2 | CC(C)Cc1ccc(C(C)C(=O)Oc2ccc(C=CC(=N)N)cc2)cc1 (stereo not drawn) [Compound 14] | 8 | 9 | 0 | 74 | 10 | 0 | – | 8 | 38 | –
3 | N=C(N)C=Cc1ccc(OC(=O)CCc2ccccc2)cc1 [Compound 15] | > 10 | 2 | – | 10 | – | 0 | – | > 10 | 10 | inhibition at 1 µM (complement): 2%; inhibition at 100 µM (complement): 80%
4 | Cc1ccc(C(=O)Oc2ccc(C=CC(=N)N)cc2)cc1 [Compound 20] | 4 | 0.03 | 97 | 75 | 38 | 17 | 1 | > 10 | – | –
5 | CC(C)(C)c1ccc(C(=O)Oc2ccc(C=CC(=N)N)cc2)cc1 [Compound 22] | 3 | 5 | 88 | 76 | 25 | 11 | 5 | 3 | – | –
6 | N=C(N)C=Cc1ccc(OC(=O)c2ccc(OCc3ccccc3)cc2)cc1 [Compound 26] | > 10 | 0.2 | 38 | 14 | 6 | 0 | – | > 10 | 37 | –
7 | CSc1ccc(C(=O)Oc2ccc(C=CC(=N)N)cc2)cc1 [Compound 28] | 1 | – | 97 | 71 | 34 | – | 0.9 | 3 | – | inhibition at 10 µM (Trypsin; at 1×10^-5 M, read-out: percentage inhibition, Trypsin): 26%; inhibition at 0.1 µM (complement): 23%
8 | N=C(N)C=Cc1ccc(OC(=O)c2ccc(C=O)cc2)cc1 [Compound 30] | 0.6 | 4 | 99 | 94 | 62 | – | 1 | 0.6 | – | inhibition at 0.1 µM (complement): 45%
9 | CN(C)c1ccc(C(=O)Oc2ccc(C=CC(=N)N)cc2)cc1 [Compound 32] | > 10 | 1 | 73 | 80 | 50 | 32 | 10 | > 10 | – | –
10 | N=C(N)C=Cc1ccc(OC(=O)c2ccc(CN)cc2)cc1 [Compound 34] | – | – | 100 | 99 | 99 | 86 | – | – | – | LD50 ([1]; ip): 200 mg/kg; LD50 ([1]; po): 2500 mg/kg
11 | N=C(N)C=Cc1ccc(OC(=O)c2ccc(NC(=N)N)cc2)cc1 [Compound 35, 4-(β-amidinoethenyl)phenyl 4-guanidinobenzoate] | 0.9 | 0.02 | – | – | – | – | 4 | 1 | – | inhibition at 0.1 µM (complement): 46%; inhibition at 1 µM (complement): 97%; inhibition at 10 µM (complement): 100%; inhibition at 100 µM (complement): 100%; IC50 (C1s; molar concentration inhibiting 50% of ATEE hydrolysis, read-out: Anti-C1 activity, C1s id50): 0.3 µM; time elapsed until death (Forssman shock; 1 mg/kg i.v. 5 minutes before hemolysin, individual animals 1-4): 490 s and 375 s and 255 s and 285 s; time elapsed until death, average (Forssman shock; 1 mg/kg i.v.): 351 s; survival of individual animal (Forssman shock; 3 mg/kg i.v. 5 minutes before hemolysin, animal 2): Survival; time elapsed until death (Forssman shock; 3 mg/kg i.v. 5 minutes before hemolysin, individual animals): 365 s and 4000 s and 690 s; time elapsed until death, average (Forssman shock; 3 mg/kg i.v.): 528 s; LD50 ([1]; ip): 133 mg/kg; LD50 ([1]; po): 1200 mg/kg
12 | N=C(N)C=Cc1ccc(OC(=O)c2ccc(Cl)cc2)cc1 [Compound 39] | 4 | 2 | 100 | 99 | 89 | 71 | 0.5 | 2 | – | –
13 | N=C(N)C=Cc1ccc(OC(=O)C=Cc2cccc(C(F)(F)F)c2)cc1 [Compound 41] | 3 | 3 | 71 | 10 | 10 | 0 | – | > 10 | 20 | –
